Legend:
[1] = tested on: PDE4; experiment: PDE4 enzyme inhibition (enzyme purified from U937 human monocytic cells); assay type: biochemical; conditions: 1 μM cAMP, 45 min at 30° C.
Description: Phosphodiesterase 4 enzyme was purified from U937 human monocytic cells by gel filtration chromatography, and phosphodiesterase reactions were carried out as previously described. See Muller et al., Bioorg. Med. Chem. Lett., 1998, 8(19): 2669-2674. Briefly, reactions were carried out in 96-well deep-well plates in 50 mM Tris HCl pH 7.5, 5 mM MgCl2, 1 μM cyclic adenosine monophosphate (cAMP), plus 10 nM [3H]-cAMP for 45 min at 30° C. The reactions were terminated by boiling, treated with 1 mg/ml snake venom, and separated using AG-1X8 ion exchange resin (BioRad). Reactions consumed less than 15% of available substrate.

[2] = molecular target: PDE2 (Homo sapiens, UniProt O00408); experiment: PDE2 enzyme assay; assay type: biochemical
Description: PDE1, 2, 3 and 5 enzyme assays were prepared as described by Hidaka and Asano. Biochem. Biophys. Acta., 1976, 429:485; see also Nicholsen et al., Trends Pharmaco. Sci., 1991, 12:19. The PDE6 enzyme assay was prepared according to Baehr et al., J. Biol. Chem., 1979, 254:11669 and Gillespie et al., Mol. Pharm., 1989, 36: 773. The PDE7 enzyme assay was prepared according to Bloom and Beavo. Proc. Natl. Acad. Sci. USA, 1996, 93:14188-92.

[3] = tested on: Alanine Aminotransferase; experiment: ALT levels in PALACE 1, 2, and 3 clinical studies; assay type: in vivo, human
From the text: Apremilast was studied in Phase 3 trials in both psoriatic arthritis and psoriasis patient populations and a Phase 2 trial in rheumatoid arthritis patients on background methotrexate. […] The improvement in mild baseline liver function test abnormalities has been observed with apremilast daily use without any prescribed changes in physical activity, social or dietary habits. The majority of the patient populations in both the psoriatic arthritis and psoriasis studies were overweight with the mean BMI for subjects greater than or equal to 30, more than half were consuming alcoholic beverages regularly, approximately 60% were taking methotrexate at an average dose of […], and 70% were using non-steroidal anti-inflammatory drugs (NSAIDs). […] During the course of the study, there was observed a higher proportion of subjects in the apremilast treatment groups (both 20 mg BID and 30 mg BID) with normal LFTs (i.e. normal levels of ALT and AST) at subsequent placebo-controlled study visits at week 4, week 16, and week 24 (See Tables 1 to 10 from PALACE 1, 2, and 3 studies).

[4] = tested on: Aspartate Aminotransferase; experiment: AST levels in PSOR-008 and PSOR-009 (plaque psoriasis); assay type: in vivo, human; conditions: for AST High, % of patients / AST Low, % of patients / AST Normal, % of patients: Week 16, 30 mg BID
Description: Apremilast was studied in Phase 3 trials in patients with moderate to severe plaque psoriasis. […] The improvement in mild baseline liver function test abnormalities has been observed with apremilast daily use without any prescribed changes in physical activity, social or dietary habits. During the course of the study, there was observed a higher proportion of subjects in the apremilast treatment group (30 mg BID) with normal LFTs (i.e. normal levels of ALT and AST) at subsequent placebo-controlled study visits at week 16. See Tables 11 to 16 from PSOR-008 and PSOR-009 studies.

[5] = Baseline High, Week 24, 20 mg BID
[6] = Baseline High, Week 24, 30 mg BID
[7] = Baseline Normal, Week 24, 20 mg BID
[8] = Baseline Normal, Week 24, 30 mg BID
[9] = Baseline Total, Week 24, 20 mg BID
[10] = Baseline Total, Week 24, 30 mg BID
[11] = 30 BID, end of treatment (week 16)

Sequence of PDE2 (O00408 whole entry): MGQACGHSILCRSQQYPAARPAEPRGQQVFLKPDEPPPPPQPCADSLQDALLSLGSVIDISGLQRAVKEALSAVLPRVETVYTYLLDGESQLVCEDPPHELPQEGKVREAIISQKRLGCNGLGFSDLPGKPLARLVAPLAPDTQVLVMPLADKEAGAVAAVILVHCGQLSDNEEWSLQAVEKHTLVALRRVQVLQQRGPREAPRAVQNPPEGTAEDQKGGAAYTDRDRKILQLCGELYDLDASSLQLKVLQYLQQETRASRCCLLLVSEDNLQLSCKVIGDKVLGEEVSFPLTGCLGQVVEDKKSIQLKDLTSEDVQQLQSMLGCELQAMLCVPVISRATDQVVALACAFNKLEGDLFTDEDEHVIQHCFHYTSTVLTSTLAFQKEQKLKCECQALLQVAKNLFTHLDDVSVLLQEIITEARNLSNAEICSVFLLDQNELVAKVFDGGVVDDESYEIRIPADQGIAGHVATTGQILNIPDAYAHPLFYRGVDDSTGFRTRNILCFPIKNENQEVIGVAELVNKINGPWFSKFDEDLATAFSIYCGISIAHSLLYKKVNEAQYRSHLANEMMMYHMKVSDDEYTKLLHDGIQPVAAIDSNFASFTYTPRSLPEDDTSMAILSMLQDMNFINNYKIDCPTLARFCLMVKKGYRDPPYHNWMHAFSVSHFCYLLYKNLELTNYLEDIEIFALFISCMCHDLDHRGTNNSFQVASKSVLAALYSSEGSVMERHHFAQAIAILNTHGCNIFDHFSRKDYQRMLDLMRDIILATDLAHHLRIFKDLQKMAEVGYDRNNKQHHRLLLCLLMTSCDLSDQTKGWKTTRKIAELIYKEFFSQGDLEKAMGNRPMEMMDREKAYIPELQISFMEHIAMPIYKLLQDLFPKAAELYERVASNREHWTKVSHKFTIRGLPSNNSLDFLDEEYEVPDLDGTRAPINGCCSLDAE

## CCOc1cc([C@@H](CS(C)(=O)=O)N2C(=O)c3cccc(NC(C)=O)c3C2=O)ccc1OC [Apremilast, (+)-2-[1-(3-ethoxy-4-methoxyphenyl)-2-methylsulfonylethyl]-4-acetylaminoisoindoline-1,3-dione]
[1]
  IC50: 73.5 nM
[2]
  inhibition at 10 µM: 6%
[3]; 20 BID, end of treatment
  ALT High to Normal, percent of patients: 55.3%
  ALT Net Benefit: 40.6%
  ALT Normal to High, percent of patients: 4.5%
[3]; 30 BID, end of treatment
  ALT High to Normal, Difference between Placebo and APR 30 BID: 44.4%
  ALT High to Normal, percent of patients: 74.4%
  ALT Net Benefit: 51.8%
  ALT Net Benefit, Difference between Placebo and APR 30 BID: 36.8%
  ALT Normal to High, Difference between Placebo and APR 30 BID: −2.8%
  ALT Normal to High, percent of patients: 4.4%
[3]; [5]
  ALT High, % of patients: 44.7%
  ALT Low, % of patients: 0.0%
  ALT Normal, % of patients: 55.3%
[3]; [6]
  ALT High, % of patients: 25.6%
  ALT Low, % of patients: 0.0%
  ALT Normal, % of patients: 74.4%
[3]; [7]
  ALT High, % of patients: 4.5%
  ALT Low, % of patients: 0.0%
  ALT Normal, % of patients: 95.5%
[3]; [8]
  ALT High, % of patients: 4.4%
  ALT Low, % of patients: 0.0%
  ALT Normal, % of patients: 95.6%
[3]; [9]
  ALT High, % of patients: 8.9%
  ALT Low, % of patients: 0.0%
  ALT Normal, % of patients: 91.1%
[3]; [10]
  ALT High, % of patients: 6.3%
  ALT Low, % of patients: 0.0%
  ALT Normal, % of patients: 93.7%
[3]; Week 4, 20 mg BID
  Baseline High ALT: High %: 54.2%
  Baseline High ALT: Normal %: 45.8%
  Baseline High ALT: Normal % difference from Placebo: 8.7%
[3]; Week 4, 30 mg BID
  Baseline High ALT: High %: 41.1%
  Baseline High ALT: Normal %: 58.9%
  Baseline High ALT: Normal % difference from Placebo: 21.8%
[3]; Week 16, 20 mg BID
  Baseline High ALT: High %: 36.8%
  Baseline High ALT: Normal %: 63.2%
  Baseline High ALT: Normal % difference from Placebo: 12.4%
[3]; Week 16, 30 mg BID
  Baseline High ALT: High %: 32.7%
  Baseline High ALT: Normal %: 67.3%
  Baseline High ALT: Normal % difference from Placebo: 16.5%
[3]; Week 24, 20 mg BID
  Baseline High ALT: High %: 45.1%
  Baseline High ALT: Normal %: 54.9%
  Baseline High ALT: Normal % difference from Placebo: 14.9%
[3]; Week 24, 30 mg BID
  Baseline High ALT: High %: 23.8%
  Baseline High ALT: Normal %: 76.2%
  Baseline High ALT: Normal % difference from Placebo: 36.2%
[4]; [11]
  AST High to Normal, percent of patients: 60.3%
  AST Net Benefit: 46.3%
  AST Normal to High, percent of patients: 2.8%
[4]; 30 BID, week 16
  AST High to Normal, Difference (APR 30 BID vs Placebo): 17.9%
  AST Net Benefit, Difference (APR 30 BID vs Placebo): 12.2%
  AST Normal to High, Difference (APR 30 BID vs Placebo): 0.3%
[4]; 30 BID, week 16, listed as APR
  AST High to Normal, Difference (APR 30 BID vs Placebo): 17.9%
[4]; Baseline High
  AST High, % of patients: 39.7%
  AST Low, % of patients: 0.0%
  AST Normal, % of patients: 60.3%
[4]; Baseline Normal
  AST High, % of patients: 2.8%
  AST Low, % of patients: 0.0%
  AST Normal, % of patients: 97.2%
[4]; Baseline Total
  AST High, % of patients: 5.9%
  AST Low, % of patients: 0.0%
  AST Normal, % of patients: 94.1%

Reference: US10300042B2, “Apremilast for the treatment of a liver disease or a liver function abnormality” (Celgene Corporation, priority 2014, dated 2019)
